Patent publication US7217704B2, “LPA receptor agonists and antagonists and methods of use” (The University of Tennessee Research Foundation, priority 2003, dated 2007)
Like-named read-outs stand apart in the source and are kept apart here.

Key:
LPA2 [1] = molecular target: T1, LPA2 (Homo sapiens, UniProt Q9HBW0); conditions: RH7777 cells expressing LPA2; previously reported in Virag et al. (2003); cited from earlier work
T1 construct: expressed in transfected cells

LPA1 [2] = molecular target: T2, LPA1 (Homo sapiens, UniProt Q92633); conditions: RH7777 cells expressing LPA1; previously reported in Virag et al. (2003); cited from earlier work
T2 construct: expressed in transfected cells
T2 sequence (Q92633 whole entry): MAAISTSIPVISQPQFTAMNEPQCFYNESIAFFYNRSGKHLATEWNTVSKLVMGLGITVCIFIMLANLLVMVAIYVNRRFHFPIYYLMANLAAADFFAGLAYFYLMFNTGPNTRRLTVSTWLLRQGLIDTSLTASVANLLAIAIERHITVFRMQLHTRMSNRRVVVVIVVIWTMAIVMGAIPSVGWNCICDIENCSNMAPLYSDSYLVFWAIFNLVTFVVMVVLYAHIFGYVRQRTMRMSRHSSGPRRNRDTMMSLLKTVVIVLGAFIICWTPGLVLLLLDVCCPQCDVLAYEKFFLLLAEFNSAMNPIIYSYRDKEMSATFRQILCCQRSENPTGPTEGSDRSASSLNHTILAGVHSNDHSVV

LPA3 [3] = molecular target: T3, LPA3 (Homo sapiens, UniProt Q9UBY5); conditions: RH7777 cells expressing LPA3; previously reported in Virag et al. (2003); cited from earlier work
T3 construct: expressed in transfected cells
T3 sequence (Q9UBY5 1-353): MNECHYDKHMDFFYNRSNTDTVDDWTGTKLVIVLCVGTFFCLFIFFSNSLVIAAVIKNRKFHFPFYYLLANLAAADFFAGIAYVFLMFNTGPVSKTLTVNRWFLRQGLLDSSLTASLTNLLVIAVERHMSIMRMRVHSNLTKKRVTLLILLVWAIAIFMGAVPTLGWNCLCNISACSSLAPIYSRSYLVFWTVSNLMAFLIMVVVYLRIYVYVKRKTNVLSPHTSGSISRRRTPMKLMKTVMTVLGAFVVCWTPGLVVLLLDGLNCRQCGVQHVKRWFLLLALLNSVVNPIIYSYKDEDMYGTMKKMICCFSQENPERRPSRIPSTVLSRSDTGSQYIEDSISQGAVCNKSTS

LPA2 [4] = molecular target: T1, LPA2; assay: Ca2+ transients (agonism / inhibition of LPA response) in RH7777 cells stably expressing LPA2; type: cell-based
Protocol: (§1) The culture medium (DMEM containing 10% FBS) was then replaced with modified Krebs solution (120 mM NaCl, 5 mM KCl, 0.62 mM MgSO4, 1.8 mM CaCl2, 10 mM HEPES, 6 mM glucose, pH 7.4) and the cells were serum starved for 6–8 hours (12 h for PC-3 cells). Cells were loaded with Fura-2 AM for 35 minutes in modified Krebs medium. The Fura-2 was removed before loading the plate in the FlexStation instrument by replacing the medium once again with 100 μl modified Krebs medium/well. Plates were incubated for 4 minutes in the instrument to allow for warming to 37° C. Changes in intracellular Ca^2+ concentration were monitored by measuring the ratio of emitted light intensity at 520 nm in response to excitation by 340 nm and 380 nm wavelength lights, respectively. Each well was monitored for 80–120 seconds. […] Time courses were recorded using the SoftMax Pro software (Molecular Devices, Sunnyvale, Calif.). Ca^2+ transients were quantified automatically by calculating the difference between maximum and baseline ratio values for each well.
(§2) Each FAP analog was tested for the ability to induce Ca^2+ transients in RH7777 cells transfected with LPA1-3 receptors (agonism), as well as the ability to inhibit LPAinduced Ca^2+ transients in the same cells (antagonism) (Table 3).

LPA1 [5] = molecular target: T2, LPA1; assay: Ca2+ transients (agonism / inhibition of LPA response) in RH7777 cells stably expressing LPA1; type: cell-based; conditions: for effect at LPA1 in words: Ca2+ transients
Protocol: as §1, §2

LPA3 [6] = molecular target: T3, LPA3; assay: Ca2+ transients (agonism / inhibition of LPA response) in RH7777 cells stably expressing LPA3; type: cell-based; conditions: for effect at LPA3 in words: Ca2+ transients
Protocol: as §1, §2

PC-3 cells = assay: Ca2+ transients in PC-3 cells endogenously expressing LPA1-3; type: cell-based, human; conditions: for effect in PC-3 cells in words: Ca2+ transients; for Emax: PC-3, read-out: PC-3 (Emax)
Protocol: as §1
We tested the FAP analogs in PC-3 cells, which unlike the transfected RH7777 cells endogenously express LPA1-3 receptors.

PPARγ = molecular target: T4, PPARγ (Homo sapiens, UniProt P37231); assay: PPARγ activation in CV1 cells, PPRE-Acox-Rluc reporter gene assay; conditions: 10 μM test compound, 20 h
T4 sequence (P37231 1-505): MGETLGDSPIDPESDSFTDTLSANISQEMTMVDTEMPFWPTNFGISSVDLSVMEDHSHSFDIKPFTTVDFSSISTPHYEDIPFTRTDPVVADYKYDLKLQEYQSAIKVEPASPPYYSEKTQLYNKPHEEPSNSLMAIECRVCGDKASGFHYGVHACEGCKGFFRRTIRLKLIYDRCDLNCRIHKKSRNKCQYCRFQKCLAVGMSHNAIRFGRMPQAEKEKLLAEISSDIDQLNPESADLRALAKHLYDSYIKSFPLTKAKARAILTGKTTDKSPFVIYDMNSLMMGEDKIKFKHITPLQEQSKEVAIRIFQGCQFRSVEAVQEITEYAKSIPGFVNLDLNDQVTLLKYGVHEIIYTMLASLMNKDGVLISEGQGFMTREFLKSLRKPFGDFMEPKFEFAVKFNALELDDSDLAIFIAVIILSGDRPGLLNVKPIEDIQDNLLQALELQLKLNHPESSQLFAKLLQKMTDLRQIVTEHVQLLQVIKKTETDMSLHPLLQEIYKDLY
Protocol: Comparing the effects with the Rosiglitazone, a known PPARγ agonist, CV1 cells were treated with 1% DMSO or 10 μM of test compound dissolved in DMSO for 20 h. Luciferase and β-galactosidase activities (mean±SEM) were measured in the cell lysate (n=4). *P<0.05 and **P<0.01, significant differences over vehicle control.
The assay of PPARγ activation in CV1 cells was run as reported in Zhang et al. Briefly, CV-1 cells were plated in 96-well plates (5×10^3 cells per well) in Dulbecco's modified Eagle's medium supplemented with 10% fetal bovine serum. […] Samples were run in quadruplicate and the mean±standard errors were calculated. Data are representative of at least two independent transfections. Student's t-test was used for null hypothesis testing and P<0.05 was considered transfection, cells were treated with 1% FBS supplemented OptiMEMI (Invitrogen) containing DMSO or 10 μM test compound dissolved in DMSO for 20 h. Luciferase and β-galactosidase activities were measured with the Steady-Glo® Luciferase Assay significant (in the figures P<0.05 is denoted by * and P<0.01 is **).

[7] = induction of Ca2+ transients, RH7777 cells expressing LPA2, read-out: LPA2 EC50
[8] = inhibition of LPA-induced Ca2+ transients, RH7777 cells expressing LPA2, read-out: LPA2 IC50
[9] = induction of Ca2+ transients, RH7777 cells expressing LPA1, read-out: LPA1 EC50
[10] = inhibition of LPA-induced Ca2+ transients, RH7777 cells expressing LPA1, read-out: LPA1 IC50
[11] = induction of Ca2+ transients, RH7777 cells expressing LPA3, read-out: LPA3 EC50
[12] = inhibition of LPA-induced Ca2+ transients, RH7777 cells expressing LPA3, read-out: LPA3 IC50
[13] = inhibition of LPA-induced Ca2+ transients, PC-3 cells, read-out: PC-3 IC50
[14] = inhibition of LPA-induced Ca2+ transients, RH7777 cells expressing LPA3, read-out: LPA3 (Ki)
[15] = inhibition of LPA-induced Ca2+ transients, PC-3 cells
[16] = Homo sapiens, inhibition of LPA-induced Ca2+ transients, PC-3 cells, read-out: PC-3 IC50
[17] = Homo sapiens, PC-3, read-out: PC-3 IC50

T1 sequence (Q9HBW0 whole entry): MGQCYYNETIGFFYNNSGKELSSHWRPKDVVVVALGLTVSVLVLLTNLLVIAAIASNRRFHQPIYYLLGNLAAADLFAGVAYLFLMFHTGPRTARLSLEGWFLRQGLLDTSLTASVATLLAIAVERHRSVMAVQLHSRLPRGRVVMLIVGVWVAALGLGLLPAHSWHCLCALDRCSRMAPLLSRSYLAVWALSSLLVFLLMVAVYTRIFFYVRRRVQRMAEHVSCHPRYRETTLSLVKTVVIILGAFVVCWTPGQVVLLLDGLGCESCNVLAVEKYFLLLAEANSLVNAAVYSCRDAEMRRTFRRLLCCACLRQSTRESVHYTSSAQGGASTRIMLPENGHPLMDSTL

## CCCCCCCCCCCCCCOP(=O)(O)O [Compound 2c]
LPA2 [1]
  EC50: > 30 µM
  IC50: > 30 µM
LPA1 [2]
  EC50: > 30 µM
LPA3 [3]
  EC50: > 30 µM

## CCCCCCCCCCCCCCCCCCP(=O)(O)O [Compound 9d, n-octadecyl-phosphonate]
LPA2 [4]; [7]
  EC50: > 30 µM
LPA2 [4]; [8]
  IC50: > 30 µM
LPA1 [5]; [9]
  EC50: > 30 µM
LPA1 [5]; [10]
  IC50: > 30 µM
LPA3 [6]; [11]
  EC50: > 30 µM
LPA3 [6]; [12]
  IC50: > 30 µM
PC-3 cells; induction of Ca2+ transients, PC-3 cells, read-out: PC-3 EC50
  EC50: > 30 µM
PC-3 cells; [13]
  IC50: > 30 µM

## CCCCCCCCCCCCCCP(=O)(O)O [Compound 9c, n-tetradecyl-phosphonate]
LPA2 [4]; Ca2+ transients, RH7777 cells expressing LPA2
  effect at LPA2 in words: IC50 values in the micromolar range
LPA2 [4]; [7]
  EC50: > 30 µM
LPA2 [4]; inhibition of LPA-induced Ca2+ transients, RH7777 cells expressing LPA2
  Ki: 3.55 µM
LPA2 [4]; [8]
  IC50: 5.5 µM
LPA1 [5]; RH7777 cells expressing LPA1
  effect at LPA1 in words: IC50 values in the micromolar range
LPA1 [5]; [9]
  EC50: > 30 µM
LPA1 [5]; [10]
  IC50: ~10 µM
LPA3 [6]; RH7777 cells expressing LPA3
  effect at LPA3 in words: IC50 values in the micromolar range
LPA3 [6]; [11]
  EC50: > 30 µM
LPA3 [6]; [14]
  Ki: 1.12 µM
LPA3 [6]; [12]
  IC50: 3.1 µM
PC-3 cells; [15]
  Ki: 4.62 µM
PC-3 cells; [13]
  IC50: 9.67 µM

## CCCCCCCCCCCCP(=O)(O)O [Compound 9b, n-dodecyl-phosphonate]
LPA2 [4]; [7]
  EC50: > 30 µM
LPA2 [4]; [8]
  IC50: > 30 µM
LPA1 [5]; [9]
  EC50: > 30 µM
LPA1 [5]; [10]
  IC50: > 30 µM
LPA3 [6]; [11]
  EC50: > 30 µM
LPA3 [6]; [14]
  Ki: 0.303 µM
LPA3 [6]; [12]
  IC50: 0.654 µM
PC-3 cells; [15]
  Ki: 1.27 µM
PC-3 cells; [13]
  IC50: 2.64 µM

## CCCCCC=CCCCOP(=O)(O)O [Compound 5b, Phosphoric acid monodec-4-enyl ester]
LPA2 [4]; [7]
  EC50: > 10 µM
LPA2 [4]; [8]
  IC50: > 30 µM
LPA1 [5]; [9]
  EC50: > 30 µM
LPA1 [5]; [10]
  IC50: > 10 µM
LPA3 [6]
  EC50: > 30 µM
  IC50: 0.83 µM
  Ki: 0.37 µM
PC-3 cells; [16]
  IC50: 1.3 µM
PC-3 cells; [15]
  Ki: 0.735 µM

## CCCCCCCC/C=C\CCCCCCCC(=O)OC[C@@H](COP(O)(O)=S)OC [OMPT]
PPARγ
  PPARγ activation (PPRE-Acox-Rluc reporter) in words: can activate PPRE-Acox-Rluc reporter

## CCC=CCCCCCCCCOP(O)(O)=S [Compound 8e, Thiophosphoric acid O-dodec-9-enyl ester]
LPA2 [4]
  EC50: 0.677 µM
  IC50: > 30 µM
LPA2 [4]; RH7777, read-out: LPA2 (Emax)
  Emax: 100%
LPA1 [5]
  EC50: > 30 µM
  IC50: > 30 µM
LPA3 [6]
  EC50: > 30 µM
  IC50: 0.027 µM
  Ki: 0.014 µM
LPA3 [6]; RH7777 cells expressing LPA3
  effect at LPA3 in words: equipotent antagonist as 8f
PC-3 cells; PC-3 cells
  effect in PC-3 cells in words: both independent activation and inhibition of LPA-induced Ca^2+ transients
PC-3 cells; Homo sapiens
  Emax: 27%
PC-3 cells; [17]
  IC50: 2.97 µM
PC-3 cells; [15]
  Ki: 1.46 µM

## CCCCCCCCCCP(=O)(O)O [Compound 9a, n-decyl-phosphonate]
LPA2 [4]; [7]
  EC50: > 30 µM
LPA2 [4]; [8]
  IC50: > 30 µM
LPA1 [5]; [9]
  EC50: > 30 µM
LPA1 [5]; [10]
  IC50: > 30 µM
LPA3 [6]; [11]
  EC50: > 30 µM
LPA3 [6]; [14]
  Ki: 0.068 µM
LPA3 [6]; [12]
  IC50: 1.2 µM
PC-3 cells; [15]
  Ki: 1.5 µM
PC-3 cells; [13]
  IC50: 3.12 µM

## CCCCC=CCCCCCCCCOP(O)(O)=S [Compound 8f, Thiophosphoric acid O-tetradec-9-enyl ester]
LPA2 [4]
  EC50: 0.48 µM
  IC50: > 30 µM
LPA2 [4]; RH7777, read-out: LPA2 (Emax)
  Emax: 150%
LPA1 [5]
  EC50: > 30 µM
  IC50: > 30 µM
LPA1 [5]; RH7777 cells expressing LPA1
  effect at LPA1 in words: no effect on the LPA-induced Ca^2+ mobilization
LPA3 [6]
  EC50: > 30 µM
  IC50: 0.028 µM
  Ki: 0.014 µM
PC-3 cells; PC-3 cells
  effect in PC-3 cells in words: both independent activation and inhibition of LPA-induced Ca^2+ transients
PC-3 cells; Homo sapiens
  Emax: 40%
PC-3 cells; [17]
  IC50: 0.938 µM
PC-3 cells; [15]
  Ki: 0.397 µM

## CCC=CCCCCCCCCOP(=O)(O)O [Compound 5c, Phosphoric acid monododec-9-enyl ester]
LPA2 [4]; [7]
  EC50: 0.717 µM
LPA2 [4]; [8]
  IC50: > 30 µM
LPA1 [5]; [9]
  EC50: > 30 µM
LPA1 [5]; [10]
  IC50: > 10 µM
LPA3 [6]; [11]
  EC50: > 30 µM
LPA3 [6]; [14]
  Ki: 0.027 µM
LPA3 [6]; [12]
  IC50: 0.032 µM
PC-3 cells; [16]
  IC50: 0.916 µM
PC-3 cells; [15]
  Ki: 0.39 µM

## CCCCCCCCCCOP(=O)(O)O [Compound 2a]
LPA2 [1]
  IC50: > 30 µM
LPA1 [2]
  EC50: > 30 µM
  IC50: > 30 µM
LPA3 [3]
  EC50: > 30 µM

## C=CCCCCCCCCOP(=O)(O)O [Compound 5a, Phosphoric acid monodec-9-enyl ester]
LPA2 [4]; RH7777, maximal efficacy of the drug/maximal efficacy of LPA 18:1, read-out: LPA2 (Emax)
  Emax: 100%
LPA2 [4]; [8]
  IC50: > 30 µM
LPA1 [5]; [9]
  EC50: > 30 µM
LPA3 [6]; [11]
  EC50: > 30 µM
LPA3 [6]; [14]
  Ki: 0.504 µM
LPA3 [6]; [12]
  IC50: 0.77 µM
PC-3 cells; [16]
  IC50: 1.51 µM
PC-3 cells; [15]
  Ki: 0.574 µM
